Where two headings read alike, the source gives them in different places.
Columns and labels:
[1] = test system: HCT116 cells; test: Cell viability assay (CellTiter-Glo, 72 hours) in HCT116 human colorectal cancer cells; type: cell-based; conditions: for IC50: Homo sapiens, HCT-116
In short: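 Ten-point IC50 came from an asymmetric five-parameter fit of luminescence corrected to vehicle wells. ATP content was measured by CellTiter-Glo 72 h after dosing at 37 °C. Cells were seeded at 2,000/well the day before, with 0.5% DMSO in all wells.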

[2] = test system: HCT116 NVL^P307T cells; test: Cell viability in compound-resistant HCT116 NVL^P307T cells; type: cell-based, human; conditions: for IC50: Homo sapiens, HCT-116, NVL^P307T
Description: Assessing the ability of NVL2 inhibitors to selectively kill WT versus NVL2^mut HCT116, block ribosome biogenesis and induce p53. We evaluate analogs in the colorectal cancer cell line HCT116 and already available compound-resistant clones. One clone has a mutation in the compound binding site (NVL2^R403W) and another clone (NVL2^P307T) has a mutation distant from the binding site that confers resistance through an unknown effect. Based on our results, analogs that kill HCT116 cells via NVL2 inhibition (on-target) have reduced potency in compound-resistant HCT116 mutant clones. Our analogs have been counter-screened against the NVL2 compound-resistant mutant clones with fold resistance range between 10-100 fold (most analogs 20-50 fold). This counter screen provides a strategy for identifying off-target toxins.
From whole exome sequencing, we identified variants that were acquired during IAA-induced mutagenesis with the hypothesis that genes related to resistance will be mutated in multiple clones. Two genes contained acquired variants in at least 3 of the 15 selected clones: TERT, mutated in 3 of 15 clones, and NVL, mutated in all 15 clones. […] In sum, 57 out of 59 unique clones harbored NVL mutations. The majority of mutations clustered within the D1 AAA+ ATPase domain and frequently affecting the same codons. To test whether these mutations are sufficient for MM017 resistance, we used CRISPR-Cas9 to knock-in two of the most resistant mutations (NVL^P307T, NVL^R403W) and a mutation with intermediate resistance (NVL^H304R). Transfection of cells with sgRNAs targeting these NVL residues in addition to a mutation-encoding repair template yielded an increased rate of resistance when compared to mock treatments.
HCT116 cells were transfected with TransIT-LT (Mirus #MIR2304) according to manufacturer's protocol with a guide RNA (either mock or NVL targeting) in the px330 vector (Addgene, #42230), and 10 nM single stranded deoxyoligonucleotide encoding a specific NVL mutation (see below for specific sequences). 72 hours after transfection, cells were selected by MM017 treatment. The resulting cells were evaluated by cresyl violet staining or collected and the relevant NVL mutations were analyzed by either amplicon or sanger sequencing.
Cell viability assay: In 96-well assay plates (Corning #2903), 2,000 cells were plated per well in 100 μL of medium and allowed to adhere overnight. The next day, compounds suspended in DMSO were dispensed to the assayed wells using a D300e Digital Dispenser (Tecan). All wells were normalized to 0.5% DMSO. 72 hours after incubation at 37° C. in 5% CO2, cell viability was assayed using an ATP-based luminescent viability assay, CellTiter-Glo (Promega #G8462). Substrate was mixed 1:1 with phosphate-buffered saline (PBS) supplemented with 1% Triton X-100, and 40 μL of this mixture was added to the assay wells. Plates were shaken on a microplate shaker for 10 minutes at room temperature. Luminescence (CellTiter-Glo) was recorded using a Synergy 2 microplate reader (BioTek). In Prism 9 software (GraphPad), ten-point dose response curves were plotted with baseline-correction to the vehicle control well, and IC50 values were calculated by curve fitting using asymmetric (five parameter), least squares fit.

[3] = test system: iHCT116 cells; test: Growth inhibition of engineered iHCT116 cells; type: cell-based; conditions: Homo sapiens
Description: We recently described an isogenic forward genetic system to rapidly find mutations conferring resistance to compounds with anti-proliferative activity (32). This system uses an engineered colorectal cancer HCT116 cell line (iHCT116) in which the addition of indole acetic acid (IAA) initiates a ubiquitin-mediated degradation of the DNA mismatch repair protein MLH1, thereby providing a mechanism to temporarily increase mutation rates. We applied this strategy to MM017, a dibenzothiazepinone identified in a high-throughput small molecule screen for HCT116 cytotoxicity. […] We exposed barcoded iHCT116 cells, that had previously been cultured either with (Mutagenesis-on) or without IAA (Mutagenesis-off), to increasingly lethal doses of MM017.

[4] = test system: 60S biogenesis; test: SNAP-tag labeling of existing and newly synthesized eL36 (60S) and eS17 (40S); type: cell-based, human; conditions: 24 hours
Description: The observed reduction in free 60S using polysome profiling could be the consequence of decreased 60S synthesis or accelerated 60S degradation, or a combination of the two. To distinguish between existing and newly synthesized 60S, we engineered HCT116 cells to express a C-terminal SNAP-tag on eL36, a ribosomal protein incorporated into the 60S subunit prior to NVL binding (39) or a control C-terminal SNAP-tag on a component of the small ribosomal subunit, eS17, to monitor 40S biogenesis (40). We first labeled existing eL36 or eS17 in cells with an Oregon green benzylguanine (green). Then, we treated cells for 24 hours with either vehicle or MM017 before adding a 647-SiR benzylguanine to label the pool of proteins synthesized over the 24-hour period and evaluated each polysome profile fraction for either existing or new proteins. […] MM017 treatment had no impact on the levels or fractionation pattern of existing eL36-SNAP.
Next, we examined the impact of MM017 on the subcellular localization of eL36-SNAP (60S) or eS17-SNAP (40S). As expected for mature ribosomes, existing eL36-SNAP was nearly completely cytoplasmic, and treatment with MM017 had no impact on its localization. In vehicle treated cells, newly synthesized eL36-SNAP was both nucleolar and cytoplasmic, reflecting its presence in pre-60S and mature ribosomes. […]

COCCN1C(=O)c2ccccc2Sc2cc(NC(=O)c3ccoc3)ccc21 [MM017]
IC50 ([1]; NVL^WT, read-out: IC50): 380 nM | resistance of NVL^P307T cells [2]: comparatively resistant | IC50 [2]: > 50000 nM | IC50 [3]: 460 nM | effect on 40S subunits (eS17-SNAP) [4]: no impact on 40S subunits | newly synthesized eL36-SNAP in polysome profile fractions [4]: reduced in the 60S, 80S, and polysome fractions

CC#CCN1C(=O)c2ccc(F)cc2Sc2cc(NC(=O)c3ccc4oc(=O)n(C)c4c3)ccc21 [MM927, N-(10-(But-2-yn-1-yl)-3-fluoro-11-oxo-10,11-dihydrodibenzo[b,f][1,4]thiazepin-7-yl)-3-methyl-2-oxo-2,3-dihydrobenzo[d]oxazole-5-carboxamide]
potency relative to parent compound MM017 ([1]; HCT116 proliferation): five times more potent | IC50 ([1]; read-out: IC50, HCT116 proliferation): 79 nM | resistance of NVL^P307T cells [2]: relatively resistant | IC50 [2]: 1670 nM
